The target of one data set is T1, Thromboxane synthase (Homo sapiens, UniProt P24557).
T1 construct: Human Platelet Thromboxane Synthase Assay; from tissue; host or cells: human platelets
T1 sequence (P24557 1-533): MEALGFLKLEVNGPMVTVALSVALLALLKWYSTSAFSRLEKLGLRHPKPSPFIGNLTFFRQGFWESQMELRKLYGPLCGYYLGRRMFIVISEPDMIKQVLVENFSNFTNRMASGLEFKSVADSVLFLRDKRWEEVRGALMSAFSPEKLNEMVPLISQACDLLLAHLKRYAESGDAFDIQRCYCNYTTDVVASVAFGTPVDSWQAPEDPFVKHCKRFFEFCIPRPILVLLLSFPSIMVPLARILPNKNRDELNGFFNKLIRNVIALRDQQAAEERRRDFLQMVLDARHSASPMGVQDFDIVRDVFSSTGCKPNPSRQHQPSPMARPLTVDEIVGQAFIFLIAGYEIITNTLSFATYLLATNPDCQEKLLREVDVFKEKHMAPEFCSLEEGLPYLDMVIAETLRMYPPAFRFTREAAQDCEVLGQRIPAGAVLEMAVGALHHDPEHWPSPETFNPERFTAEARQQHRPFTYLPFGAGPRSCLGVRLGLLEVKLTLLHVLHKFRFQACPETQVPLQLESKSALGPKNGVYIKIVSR
Briefly: Human platelet thromboxane synthase assay. Type of data set: biochemical. The procedure:
The compounds were tested for thromboxane synthase inhibition essentially as described by Borsch-Haubold A G, Pasquet S, Watson S P. (1998). Direct inhibition of cyclooxygenase-1 and -2 by the kinase inhibitors SB 203580 and PD 98059. […] 1. Imidazole derivatives. J Med. Chem. (10):1139-48 according to the following:
Pre-incubation time, temp: 15 minutes at 25° C. Incubation time, temp: 3 minutes at 25° C.
Incubation Buffer: 10 mM Tris-HCl, pH 7.4
Quantification Method: ETA quantification of TxB2

The target in data set [1] is T2, Thromboxane receptor (TP) (Homo sapiens, UniProt P21731).
T2 construct: expressed in transfected cells; host or cells: HEK-293 cells
T2 sequence (P21731 1-343): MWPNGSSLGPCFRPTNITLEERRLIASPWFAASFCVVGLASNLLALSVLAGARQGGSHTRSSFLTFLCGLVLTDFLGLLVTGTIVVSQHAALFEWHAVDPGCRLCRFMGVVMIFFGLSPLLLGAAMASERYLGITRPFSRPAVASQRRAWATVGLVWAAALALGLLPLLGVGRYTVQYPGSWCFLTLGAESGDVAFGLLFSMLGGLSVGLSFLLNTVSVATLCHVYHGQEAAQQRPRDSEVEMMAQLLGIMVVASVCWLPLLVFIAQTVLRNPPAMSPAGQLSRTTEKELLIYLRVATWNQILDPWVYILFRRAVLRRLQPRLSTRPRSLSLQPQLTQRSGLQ
Briefly: TP receptor radioligand binding. As to conditions: Human recombinant HEK-293 cells. The procedure:
The compounds were tested on radioligand binding assays for thromboxane receptor binding essentially as described by Hedberg et al. (1988) J. Pharmacol. Exp. Ther. 245:786-792 and Saussy et al. (1986) J. Biol. Chem. 261: 3025-3029 according to the following:
TP Receptor Radioligand Binding Studies:
Human recombinant HEK-293 cells,
Incubation Time, Temp: 30 minutes at 25° C.
Incubation Buffer: 50 mM Tris-HCl, pH 7.4, 154 mM NaCl
Non-Specific Ligand: 1 μM SQ-29548
The data were transformed to semi-log and then analysed using non-linear regression to a four-parameter dose-response curve Y=Bottom+(Top−Bottom)/(1+10̂((LogEC50−X)*HillSlope)) using the log(agonist) vs. response—Variable slope function of GraphPad Prism software (http://graphpad.com/help/prism5/prism5help.html?usingnonlinear_regression_step_by_s.htm).

Another data set deals with KKA^y mice. Kind of data set: In vivo effect on serum glucose and other parameters in KKA^y mice. The procedure:
52 male KKA^y mice are obtained commercially (e.g., from Clea Japan) at an age of 6 weeks and put on a high fat diet upon arrival. Individual mice were housed in IVC Type II cages during both the acclimatization and the experimental phase. Both food (high fat diet) and water are supplied ad libitum.
1 animal per cage. […] Lights on at 06:00 a.m. Temperature: 21-25° C. Relative humidity target range: 55-60%.
Mice were randomized into treatment groups according to their 4-h fasting blood glucose.
4 hours after the last administration, non-fasting conditions.
Gamma irradiated high fat diet is commercially available (e.g., Research Diets, Inc. New Brunswick, N.J. (Product # D12266BI)).
Blood is collected into heparin containing glass capillaries which are subsequently centrifuged in a “Haematokrit 24” centrifuge (Hettich) at 15′200×g for 10 minutes at room temperature to obtain the hematocrit value.
The following serum parameters are determined on a COBAS INTEGRA 800 auto analyzer (Roche Diagnostics, Switzerland) using the reagents and protocols provided by the supplier.
All measurements are made on Day 14 of administration, except for the food intake and body weight measurements that are made on Day 12.

Data set [2] deals with arterial thrombosis in a mouse model. Briefly: Arterial thrombosis in a mouse model (FeCl3, femoral artery). The format is in vivo. The following applies: mice. The procedure: The solutions are diluted 3.3-fold in saline and 100 μl/25 g is injected. Thus, the above-mentioned doses of 100 and 300 mg/kg of compound correspond to final doses of 30 and 100 mg/kg.
During the experiments, a soluble salt of the drug is provided (e.g., potassium salt of compound C), diluted in saline. Of this formulation, 100 μl/25 g is injected i.v. in the tail vein (dose of 100 mg/kg).
Solutions are injected (100 μl/25 g body weight) i.v. in the tail vein over 2 min to obtain doses of each compound of 30 mg/kg and 100 mg/kg. Aspirin is given the same way at a dose of 200 mg/kg. Clopidogrel is administered by oral gavage at a dose of 20 mg/kg at 6-7 hours prior to the experiment. The animals assigned to each group are matched for body weight. Mice are typically 8-10 weeks old males and are in a 100% Swiss genetic background.
The flow in each image is expressed as a percentage of that at the contralateral side, and data are averaged for all 120 images to determine total flow. The same analysis is performed for 10 min intervals (which gives essentially the same information as the area under the curve). […] Flow before treatment is recorded as 100%, and that in occluded arteries as 0%. At the end of the experiment, blood is collected on 0.01M citrate buffer by heart puncture for determination of blood cell counts. Plasma is prepared by centrifugation and stored at −20° C. for determination of drug levels.
Statistical analysis for differences between two groups is performed by non-parametric Student t-test. Occlusion times >30 min were considered equal to 30 min for statistical analysis. Significance is set at p<0.05.

For data set [3], the system named is U-46619-induced platelet aggregation. Kind of data set: TP receptor platelet aggregation, rabbit. The format is cell-based, New Zealand Rabbit. The procedure: Thrombosis Research 33:277-288.
TP Receptor Platelet Aggregation—Rabbit:
New Zealand Rabbit (2.75±0.25 kg) platelet rich plasma
Assay: Inhibition of 1.5 μM U-46619-induced platelet aggregation Incubation Time, Temp: 5 minutes at 37° C. Incubation Buffer Trisodium Citrate (0.13 M)-treated platelet rich plasma
Time of Assessment: 5 minutes
Quantification Method Optical Density Change

The mark [4] stands for this setting: 14-day oral gavage BID, dose not given.
Where [5] appears, read: 53 mg/kg BID oral gavage 14 days, high fat diet, Day 14.

As to `COc1ccccc1[C@@H]1O[C@H](c2ccccc2Cl)OC[C@@H]1C/C=C\CCC(=O)O` [Compound F, (Z)-6-((2R,4R,5S)-2-(2-chlorophenyl)-4-(2-methoxyphenyl)-1,3-dioxan-5-yl)hex-4-enoic acid, reference compound], the IC50 (in general, the point on the concentration scale where inhibition reaches its midpoint) against Thromboxane synthase worked out at 20400 nM. Also, the “Thromboxane synthase Human platelet Inhibition (%)” value on Thromboxane synthase (at 30 μM) is reported as 62 @ 30 μM %. Also, in data set [1] (5 nM [3H] SQ-29548), the half-inhibitory concentration (IC50) amounted to 23.4 nM; the inhibitory constant (Ki) (usually the dissociation constant of the complex between target and ligand, obtained from inhibition or displacement) worked out at 15.3 nM. For the same compound, in data set [1] (at 0.3 μM, 5 nM [3H] SQ-29548), the inhibition (as a rule, the drop in the measured response relative to a control, in per cent) at 0.3 µM was found to be 96%.
With `CN(CCOc1ccc(CC2SC(=O)NC2=O)cc1)c1ccccn1` (stereo not shown) [Rosiglitazone, reference compound], the Heart weight in the data set with KKA^y mice (5 mg/kg BID oral gavage 14 days, high fat diet, Day 14) was 226.2 ± 6.9 mg; in the data set on KKA^y mice (5 mg/kg BID oral gavage 14 days, high fat diet, Day 14, listed as rosiglitazone), “increased”.
`COc1ccccc1[C@@H]1O[C@H](c2ccccc2Cl)OC[C@@H]1C/C=C\CCC(=O)O` [Compound E, (Z)-6-((2R,4R,5S)-2-(2-chlorophenyl)-4-(2-methoxyphenyl)-1,3-dioxan-5-yl)hex-4-enoic acid, reference compound] showed an inhibition at 30 µM on Thromboxane synthase (at 30 μM) of 52%. Besides, in data set [1] (5 nM [3H] SQ-29548), the inhibition at 10 µM stood at 85%.
As to `CC(=O)Oc1ccccc1C(=O)O` [Aspirin], in data set [2] (200 mg/kg i.v.), the Occlusion time entry is recorded as “has no effect on the occlusion time” and the Total blood flow entry was “has no significant effect on the total blood flow”.
For `COC(=O)[C@H](c1ccccc1Cl)N1CCc2sccc2C1` [Clopidogrel], in data set [2] (20 mg/kg oral gavage 6-7 hours prior), the Total blood flow entry was “significantly improved total blood flow”.
With `Cc1ccc2nc(Cl)c([C@H]3OC[C@@H](C/C=C\CCC(=O)O)[C@@H](c4ccccc4O)O3)cc2c1` (racemic) [Compound 13, (Z)-6-(2-(2-Chloro-6-methyl-quinolin-3-yl)-4-(2-hydroxyphenyl)-1,3-dioxan-5-yl)hex-4-enoic acid], at Thromboxane synthase, the “Inhibition of thromboxane synthase (in words)” value is reported as “potent inhibitors of thromboxane synthase”. The compound further gave an inhibition at 5 µM against Thromboxane synthase (at 5 μM) of 85%. In data set [2] (dose not given), the Occlusion time result is “prolongs the occlusion time” and the Total blood flow result is “improves total blood flow”. In addition, the “Inhibition of platelet aggregation (in words)” value in data set [3] is recorded as “potent inhibitors of platelet aggregation”. In data set [3] (Oryctolagus cuniculus, at 10 μM, 1.5 μM U-46619, platelet rich plasma), this compound showed an inhibition at 10 µM of 100%. Besides, in the data set with KKA^y mice (setting [4]), the FFA result is reported as “decreases the FFA”, the HbA1c levels entry is recorded as “decreased” and the Heart weight result is on record as “has no effect on heart weight”. The Body weight entry in the data set on KKA^y mice (oral gavage BID, dose not given) was “do not alter body weight”.
On to `O=C(O)CC/C=C\C[C@@H]1CO[C@H](c2coc3ccc(Cl)cc3c2=O)O[C@@H]1c1ccccc1O` (single isomer, unassigned) [Compound 3-1], for which the IC50 was 365 nM on Thromboxane synthase and 88.9 nM in data set [1] (5 nM [3H] SQ-29548). Besides, the inhibition at 1 µM against Thromboxane synthase (at 1 μM) came out at 67%; in data set [1] (at 1 μM, 5 nM [3H] SQ-29548), 99%. Besides, the “Binding to the TP receptor (comparison of enantiomers)” value in data set [1] is “binds with higher affinity than enantiomer 3-2”. Besides, in data set [1] (5 nM [3H] SQ-29548), the inhibition constant (Ki) was determined as 58 nM.
For `O=C(O)CC/C=C\C[C@@H]1CO[C@H](c2ccccc2Cl)O[C@@H]1c1ccccc1O` [Compound C, (Z)-6-((2S,4S,5R)-2-(2-chlorophenyl)-4-(2-hydroxyphenyl)-1,3-dioxan-5-yl)hex-4-enoic acid, reference compound], in data set [2] (30 mg/kg in vehicle i.v.), the Occlusion time entry is on record as “slightly prolongs the occlusion time as compared to aspirin (p=0.024), but has no effect as compared to vehicle” and the Total blood flow entry is given as “has no effect on total blood flow”. In the data set with KKA^y mice (setting [5]), the FFA entry was “decreases the FFA”, the HbA1C result is given as “decreased”, the Heart weight result is “has no effect on heart weight” and the “Serum Glucose” value is “decreased”. Besides, in the data set on KKA^y mice (53 mg/kg BID oral gavage, high fat diet, Day 12), the “Body weight” value is “do not alter body weight”.
With `O=C(O)CC/C=C\C[C@H]1CO[C@@H](c2coc3ccc(Cl)cc3c2=O)O[C@H]1c1ccccc1O` (single isomer, unassigned) [Compound 3-2], the half-maximal inhibitory concentration (IC50) at Thromboxane synthase was over 100000 nM. This compound also registered an inhibition at 100 µM against Thromboxane synthase (at 100 μM) of 37%. In data set [1] (5 nM [3H] SQ-29548), the IC50 stood at 1680 nM, the inhibitory constant (Ki) is 1100 nM and the inhibition at 10 µM is 93%.
